Marks after values point to notes of the source that are not given here.
Tests used:
[1] = test system: peritoneal macrophage; test: Effect of ICN on phagocytosis of peritoneal macrophage; assay type: in vivo; conditions: mice, ICN 5.5 mg/kg i.p. daily for 5 days, cyclophosphamide 4.5 mg/kg; macrophages with phagocytized chick red blood cells per 100 macrophages
Description: The control mice were injected with same volume of normal saline. These injections were repeated daily for 5 days, both treated and control group were injected intraperitoneally with cyclosphosphamide. The dosage of cyclophosphamide is 4.5 mg/kg. The same experimental procedure for example 3, 4 and 5 in testing mice were used. Added 0.02 ml of 5% washed chick red blood cell suspension to 0.5 ml of the peritoneal exudates. Shook gently to mix and incubate at 37° C. for 5 minutes. Dipped two cover slips, closed to each other, in the above mixture and incubated for 30 minutes for the migration of the macrophages along the cover slips, fixed and stained with Sharma stain. Examined microscopically for: Phagocytic rate—number of macrophages with phagocytized chick red blood cells per 100 macrophages counted. Method of animal model is regular.

[2] = test system: testosterone; test: Effect of ICN on testosterone (radioimmune method); assay type: in vivo, Wistar male rats
Description: Thirty normal Wistar male rats weighing 280+20 g were selected.
The rats were killed 30th days after the administration. The testosterone level of the rats in various groups was determined by using radioimmune method. The index of testis was determined. Control group was pathological model group. In control group, rats treated by cyclophosphamide (CYE). Rats treated by ICN+CYE in treatment group.

[3] = test system: bone marrow stem cells (CFU-S); test: Effects of ICN on hemopoietic system (spleen colony assay); assay type: in vivo, mice
From the text: With increased cells in bone-marrow (BMC), endogenous colonies in spleen and higher ^3H-TdR uptake in marrow and spleen. The level of serum colony stimulating factor (CSF) increased after injection.

[4] = test system: interleukin-2 (rIL-2); test: Effect of ICN on interleukin-2 (rIL-2); assay type: in vivo; conditions: treatment group
From the text: The methods of determination rIL-2 were regular.

[5] = test system: white blood cells; test: Effect of ICN on white blood cells in rats treated by cyclophosphamide; assay type: in vivo
From the text: Action of ICN and cyclophosphamide on white blood cells was investigated by means of white blood cells assay. […] Method of testing in animal is standard. The dosage of ICN and cyclophosphamide is the same as in above examples. Time of treatment is 10 days.

[6] = test system: human blood lymphocytes; test: Effects of ICN on immune function of human blood lymphocytes (3H-TdR incorporation); assay type: cell-based; conditions: for CPM (3H-TdR incorporation into lymphocytes): ICN added to culture medium
Description: 2 ml of venous blood, heparinized was obtained from each of the participants. […] MEM was supplemented with 0.125 ml of heat-inactivated fetal calf serum, 100 units of Penicillin and 0.1 mg of streptomycin per ml of medium. Culture medium was divided into treated (ICN) and control group. ICN was added to the culture medium of treatment group. […] The ^3H-thymidine (^3H-TdR) was added into all the cultures (2 μci/ml) for last 12 hours of culture. The cells were harvested on 0.45 μm filters, washed with phosphate buffer (ph 7.4) and bleached with H2O2. The filters were then dried and the incorporation of ^3H-TdR into lymphocytes cell was measured by scintillation counter.

[7] = test system: lymphocytes; test: Effect of ICN on lymphoblastoid transformation (3H-TdR liquid scintillation); assay type: in vivo, mice; conditions: 3H-TdR uptake, PHA-stimulated lymphocytes
Description: (1) Experimental procedure of animal is the same as in Example 2.
(2) Lemphoblastoid transformation test:
I. Reagents and conditions for cell culture
a. Culture media—RPMI 1640, medium 199 minimal essential medium (Eagle).
b. Buffer—Hepes buffer, the final concentration at 37° C. was 25 mM, to maintain the pH of the medium at 7.31.
c. Serum—generally 15-205 fetal bovine serum was incorporated, for lymphocytes from mice, 5% was used.
d. Gaseous phase—5% CO2 in air.
e. Cell concentration—generally 1-2 c 10^6/ml.
f. Stimulants—20μl/ml for phytohemagglutinin containing polysaccharide (PHA-M) or 10 μl/ml for polysaccharide-free purified phytohemagglutinin (PHA-P).
II. Measured by liquid scintillation
a. The conditions of cell culture are same as above. ^3H-TdR was added after 48 hours of incubation at a final concentration of 1 μCi/ml and continued the incubation for 24 hours.
b. Washed the cells twice with cold normal saline and the erythrocytes were lysed. The intact lymphocytes were again washed once with cold saline. Spun down the lymphocytes and added 2 ml of 10% trichloroacetic acid to precipitate the protein. Washed twice with normal saline. Added 2 ml of ethanol:ether (1:1) to wash once. 0.2 ml of formic acid was then added for digestion till the precipitate was dissolved.
c. Added 4 ml of scintillation fluid to 0.1 ml of the final sample and counted in a liquid scintillation counter.

[8] = test system: Lipoperoxides; test: Effect on peroxidation (hepatic lipoperoxide content); assay type: in vivo
Description: The animal experiments were performed as previously described. Hepatic lipoperoxide content was determined. In the present study, the effect of SCS on lipoperoxides was examined. It is known that the pathogenesis of CCl4—induced hepatic damage involved reactive oxidant species increasing from the metabolism. The liver injure caused by CCl4 is due to the formation of a reactive toxic metabolite by the hepatic cytochrome P-450 system.

[9] = test system: male mice; test: Effect of ICN on sexual behavior (ejaculation experiments); assay type: in vivo
From the text: Selected 50 mice including male: 28-32g and female: 24-26g. The age of mice is over 8 weeks. The mice were divided normal group, suspend-loaded group, large dosage of ICN group, small dosage of ICN group and positive control group. The index of major sexual behaviors of male mice is ejaculation experiments operated on 15th day.

[10] = mice treated by cyclophosphamide

What does the source list for Icariin [ICN]?
Phagocytic (rate ± SD) [1]: 28.5 ± 3.0; Testosterone level ([2]; rats treated by ICN+CYE (cyclophosphamide), killed 30th day after administration, X ± SD): 154.6 ± 19.8 ng/dL; level of testosterone (in words) ([2]; summary of Table 1): increase the level of testosterone significantly; protection of stem cells of bone marrow from killing effect of cyclophosphamide ([3]; mice): protected; 3H-TdR uptake in marrow and spleen [3, 10]: higher; cells in bone-marrow (BMC) [3, 10]: increased; endogenous colonies in spleen [3, 10]: increased; recovery rate of hemopoieses [3, 10]: markedly improve; Mean (CFU-S ± SD) ([3]; mice treated by cyclophosphamide, spleen colony assay): 27.2 ± 3.0; IL-2 (U/ml) ± SD [4]: 79.0 ± 8.5 U/ml; protection of white blood cells from killing effect of cyclophosphamide ([5]; rats): protected; White blood cells × 10^3/cm^3 ± SD ([5]; rats treated by cyclophosphamide, 10 days treatment): 12.8 ± 2.0* 10^3/cm^3; CPM (3H-TdR incorporation into lymphocytes) ([6]; Old (n = 20)): 2500 ± 350 CPM; CPM (3H-TdR incorporation into lymphocytes) ([6]; Young (n = 20)): 8155 ± 986 CPM; human immune function (in words) ([6]; summary of Table 5-10): increase human immune function significantly; CPM ± SD (lymphoblastoid transformation) [7]: 1150 ± 120 CPM; Lipoperoxides ([8]; 1 h): 0.75 ± 0.08 mmol MDA/g liver protein; Lipoperoxides ([8]; 3 h): 0.70 ± 0.07 mmol MDA/g liver protein; Lipoperoxides ([8]; 6 h): 0.80 ± 0.9 mmol MDA/g liver protein; Lipoperoxides ([8]; 12 h): 0.70 ± 0.9 mmol MDA/g liver protein; Lipoperoxides ([8]; 24 h): 1.0 ± 0.12 mmol MDA/g liver protein; Ejaculation proportion ([9]; male mice, 15th day): 93%; treatment of infertility (in words) ([9]; summary of Table 4): marked efficiency

Source: patent US6476203B1, “Safe pharmaceutical composition for treating and preventing infertility and increasing immune function” (priority 2002, dated 2002)
